Assay results taken from US20210299059A1, “INJECTABLE PHARMACEUTICAL COMPOSITION AND PREPARATION METHOD THEREFOR” (Jiangsu Hengrui Medicine CO., LTD., priority 2018, published 2021).

Assays:
[1] = cited from earlier work
[2] = cited from earlier work; remark: listed apart in the source
[3] = Pharmacokinetics study, subcutaneous apixaban injection (Embodiment 4); assay type: in vivo, humans; conditions: human, plasma, sc, 2.5 mg, plasma drug concentration of apixaban, 1 mL of 2.5 mg/mL apixaban injection subcutaneously

COc1ccc(-n2nc(C(N)=O)c3c2C(=O)N(c2ccc(N4CCCCC4=O)cc2)CC3)cc1 [apixaban, Apixaban]
ionization ([1]; at physiological pH (1.2 to 6.8)): not ionized
LogP [1]: 3.53
solubility ([1]; in the physiological pH range (1.2 to 6.8)): about 0.04 mg/ml
oral bioavailability [2]: approximately 50%
concentration at 0 h ([3]; Mean of three subjects): 0 ng/mL
concentration at 0.25 h ([3]; Mean of three subjects): 6.19 ng/mL
concentration at 0.5 h ([3]; Mean of three subjects): 14.5 ng/mL
concentration at 1 h ([3]; Mean of three subjects): 27.1 ng/mL
concentration at 2 h ([3]; Mean of three subjects): 40.6 ng/mL
concentration at 3 h ([3]; Mean of three subjects): 47.3 ng/mL
concentration at 4 h ([3]; Mean of three subjects): 51.2 ng/mL
concentration at 5 h ([3]; Mean of three subjects): 43.4 ng/mL
concentration at 6 h ([3]; Mean of three subjects): 41.6 ng/mL
concentration at 8 h ([3]; Mean of three subjects): 39.3 ng/mL
concentration at 10 h ([3]; Mean of three subjects): 32.2 ng/mL
concentration at 16 h ([3]; Mean of three subjects): 21.2 ng/mL
concentration at 24 h ([3]; Mean of three subjects): 13.8 ng/mL
concentration at 0 h ([3]; subject C-01): 0 ng/mL
concentration at 0.25 h ([3]; subject C-01): 8.08 ng/mL
concentration at 0.5 h ([3]; subject C-01): 18.2 ng/mL
concentration at 1 h ([3]; subject C-01): 35.8 ng/mL
concentration at 2 h ([3]; subject C-01): 52 ng/mL
concentration at 3 h ([3]; subject C-01): 62.1 ng/mL
concentration at 4 h ([3]; subject C-01): 68.8 ng/mL
concentration at 5 h ([3]; subject C-01): 52.4 ng/mL
concentration at 6 h ([3]; subject C-01): 48.8 ng/mL
concentration at 8 h ([3]; subject C-01): 46.7 ng/mL
concentration at 10 h ([3]; subject C-01): 37.6 ng/mL
concentration at 16 h ([3]; subject C-01): 22.8 ng/mL
concentration at 24 h ([3]; subject C-01): 14.3 ng/mL
concentration at 0 h ([3]; subject C-02): 0 ng/mL
concentration at 0.25 h ([3]; subject C-02): 5.36 ng/mL
concentration at 0.5 h ([3]; subject C-02): 14.3 ng/mL
concentration at 1 h ([3]; subject C-02): 23.8 ng/mL
concentration at 2 h ([3]; subject C-02): 37.9 ng/mL
concentration at 3 h ([3]; subject C-02): 43.2 ng/mL
concentration at 4 h ([3]; subject C-02): 44.8 ng/mL
concentration at 5 h ([3]; subject C-02): 38.1 ng/mL
concentration at 6 h ([3]; subject C-02): 40.4 ng/mL
concentration at 8 h ([3]; subject C-02): 33.4 ng/mL
concentration at 10 h ([3]; subject C-02): 28.9 ng/mL
concentration at 16 h ([3]; subject C-02): 19.2 ng/mL
concentration at 24 h ([3]; subject C-02): 11.4 ng/mL
concentration at 0 h ([3]; subject C-03): 0 ng/mL
concentration at 0.25 h ([3]; subject C-03): 5.13 ng/mL
concentration at 0.5 h ([3]; subject C-03): 10.9 ng/mL
concentration at 1 h ([3]; subject C-03): 21.7 ng/mL
concentration at 2 h ([3]; subject C-03): 31.9 ng/mL
concentration at 3 h ([3]; subject C-03): 36.6 ng/mL
concentration at 4 h ([3]; subject C-03): 40 ng/mL
concentration at 5 h ([3]; subject C-03): 39.7 ng/mL
concentration at 6 h ([3]; subject C-03): 35.5 ng/mL
concentration at 8 h ([3]; subject C-03): 37.6 ng/mL
concentration at 10 h ([3]; subject C-03): 30.1 ng/mL
concentration at 16 h ([3]; subject C-03): 21.6 ng/mL
concentration at 24 h ([3]; subject C-03): 15.8 ng/mL
